According to patent US20220298138A1, “ENZYME INHIBITORS” (KALVISTA PHARMACEUTICALS LIMITED, priority 2019, published 2022):

What was measured:
[1] = biological target: T1, Human FXIa (Homo sapiens, UniProt P03951); test: FXIa inhibitory activity in vitro (fluorogenic substrate Z-Gly-Pro-Arg-AFC), selectivity; format: biochemical; conditions: 25° C.
T1 construct: Human FXIa (Enzyme Research Laboratories) was incubated; purchased Enzyme Research Laboratories
Description: Determination of the % Inhibition for FXIa
Human FXIa (Enzyme Research Laboratories) was incubated at 25° C. with the fluorogenic substrate Z-Gly-Pro-Arg-AFC and various concentrations of the test compound. Residual enzyme activity (initial rate of reaction) was determined by measuring the change in fluorescence at 410 nm and the IC50 value for the test compound was determined.

[2] = biological target: T2, Human Factor XIIa (Homo sapiens, UniProt P00748); test: Factor XIIa inhibitory activity in vitro (fluorogenic substrate H-DPro-Phe-Arg-AFC); format: biochemical; conditions: 25° C., class symbols, read-out: Human FXIIa IC50
T2 construct: purchased Enzyme Research Laboratories
T2 sequence (P00748 373-615 limits assumed): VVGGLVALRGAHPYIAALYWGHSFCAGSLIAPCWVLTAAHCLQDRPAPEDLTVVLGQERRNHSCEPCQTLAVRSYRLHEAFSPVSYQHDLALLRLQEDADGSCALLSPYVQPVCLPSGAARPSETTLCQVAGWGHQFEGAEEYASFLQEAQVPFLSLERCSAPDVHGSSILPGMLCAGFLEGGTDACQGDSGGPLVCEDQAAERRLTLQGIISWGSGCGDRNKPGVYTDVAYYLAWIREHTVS
Procedure, shortened: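 Enzyme incubated at 25° C with fluorogenic substrate H-DPro-Phe-Arg-AFC and a range of compound concentrations. Residual activity taken as initial reaction rate from […], giving IC50.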

[3] = numeric bound printed instead of category

T1 sequence (P03951 388-625 limits assumed): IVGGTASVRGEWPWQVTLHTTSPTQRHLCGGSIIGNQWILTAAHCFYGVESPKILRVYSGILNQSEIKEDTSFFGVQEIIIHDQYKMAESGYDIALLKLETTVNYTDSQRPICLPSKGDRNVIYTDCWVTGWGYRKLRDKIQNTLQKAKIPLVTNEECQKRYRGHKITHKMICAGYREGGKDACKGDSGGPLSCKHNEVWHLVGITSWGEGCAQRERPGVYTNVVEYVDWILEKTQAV
T1 sequence (P03951 19-387 partner limits assumed): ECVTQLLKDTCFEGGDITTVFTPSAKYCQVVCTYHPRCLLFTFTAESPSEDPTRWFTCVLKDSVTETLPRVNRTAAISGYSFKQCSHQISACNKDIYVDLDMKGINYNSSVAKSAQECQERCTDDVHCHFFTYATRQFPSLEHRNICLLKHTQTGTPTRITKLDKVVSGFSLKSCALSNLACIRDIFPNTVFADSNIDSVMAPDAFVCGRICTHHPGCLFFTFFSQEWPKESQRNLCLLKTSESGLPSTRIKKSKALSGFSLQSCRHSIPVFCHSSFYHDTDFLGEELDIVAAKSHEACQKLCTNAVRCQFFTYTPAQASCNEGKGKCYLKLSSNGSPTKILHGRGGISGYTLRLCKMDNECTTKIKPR

SMILES | IC50 ([1]; category scale) | IC50 [2] | IC50 [1, 3]
CC(C)N[C@H](CCc1ccccc1)C(=O)N1CC[C@H]1C(=O)NCc1ccc2c(N)nccc2c1 [Example 17.09, (2S)—N-[(1-aminoisoquinolin-6-yl)methyl]-1-[(2R)-2-(isopropylamino)-4-phenylbutanoyl]azetidine-2-carboxamide] | 10 to 40 µM | 0.1 to 0.279 µM | 
C[C@@H](C(=O)NCc1ccc2c(N)nccc2c1)N(C)C(=O)[C@H](N)CCc1ccccc1 [Example 65.02] | > 40 µM | 1 to 3 µM | 
Nc1nccc2cc(CNC(=O)[C@@H]3C[C@@H](c4ccccc4)CN3C(=O)[C@@H]3CCCN3)ccc12 [Example 43.06] | 10 to 40 µM | 1 to 3 µM | 
C[C@H](NC(=O)[C@H](N)CCCCN1CCCCC1)C(=O)NCc1ccc2c(N)nccc2c1 [Example 6.14] | 10 to 40 µM | 1 to 3 µM | 
C[C@H](NC(=O)[C@@H](CCc1ccccc1)N1CCCC1)C(=O)NCc1ccc2c(N)nccc2c1 [Example 6.23] | > 40 µM | 0.1 to 0.279 µM | 
C[C@H](NC(=O)[C@@H]1C=C(c2ccccc2)CN1)C(=O)NCc1ccc2c(N)nccc2c1 [Example 45.02] | 3 to 10 µM | 3 to 10 µM | 
CC(C)N[C@H](CCCCN1CCCCC1)C(=O)N1CCC[C@H]1C(=O)NCc1cnc2[nH]cc(Cl)c2c1 [Example 27.02] | 3 to 10 µM | 0.1 to 0.279 µM | 
CC(C)(O)C(=O)N1C[C@H](c2ccccc2)C[C@H]1C(=O)NCc1ccc2c(N)nccc2c1 [Example 43.04] | 10 to 40 µM | 10 to 40 µM | 
N[C@H](CCCCN1CCOCC1)C(=O)N1CC[C@H]1C(=O)NCc1cnc2[nH]cc(Cl)c2c1 [Example 10.03] | > 40 µM | 0.28 to 1 µM | 
CC(C)N[C@H](CCCCN1Cc2ccccc2C1)C(=O)N1CC[C@H]1C(=O)NCc1ccc2[nH]cc(Cl)c2c1 [Example 10.11] | 10 to 40 µM | 0.28 to 1 µM | 
CC(C)N[C@H](Cc1c[nH]c2ccccc12)C(=O)N1CC[C@H]1C(=O)NCc1ccc2[nH]cc(Cl)c2c1 [Example 10.18] | 10 to 40 µM | 10 to 40 µM | 
C[C@@H]1CCC[C@H](C)N1CC(=O)N[C@H]1CCC[C@@H]1C(=O)NCc1ccc2c(N)nccc2c1 [Example 32.15] | > 40 µM | 10 to 40 µM | 
C[C@H](NC(=O)[C@H](N)CCc1ccccn1)C(=O)NCc1ccc2c(N)nccc2c1 [Example 6.13] | > 40 µM | 0.28 to 1 µM | 
C[C@@H]1CCC[C@H](C)N1CC(=O)N1C[C@H]2[C@@H]([C@H]1C(=O)NCc1ccc3c(N)nccc3c1)C2(C)C [Example 32.13] | > 40 µM | 10 to 40 µM | 
C[C@H](NC(=O)[C@H](N)COCc1ccccc1)C(=O)NCc1ccc2c(N)nccc2c1 [Example 6.16] | 10 to 40 µM | 10 to 40 µM | 
Nc1nccc2cc(CNC(=O)C3CC4CCC3N(C(=O)[C@H](N)CCc3ccccc3)C4)ccc12 (some centres unmarked) [Example 17.06] | 1 to 3 µM | 3 to 10 µM | 
C[C@@H]1CCC[C@H](C)N1CC(=O)NC1(C(=O)NCc2ccc3c(N)nccc3c2)CCOCC1 [Example 39.11] | > 40 µM | 10 to 40 µM | 
CC(C)n1cc(C(=O)N[C@@H](Cc2ccc(F)c(F)c2)C(=O)NCc2ccc3c(N)nccc3c2)ccc1=O [Example 0.94] | > 40 µM | 1 to 3 µM | 
CC(C)N[C@H](CCCCN1CCOCC1)C(=O)N1CC[C@H]1C(=O)NCc1cnc2[nH]cc(Cl)c2c1 [Example 10.05] | > 40 µM | 0.28 to 1 µM | 
N[C@H](CCCCN1CCCCC1)C(=O)N[C@@H](Cc1ccc(F)c(F)c1)C(=O)NCc1cnc2[nH]cc(Cl)c2c1 [Example 27.06] | > 40 µM | 0.03 to 0.1 µM | 
Nc1nccc2cc(CNC(=O)CNC(=O)c3ccc(N4CCOCC4)cc3)ccc12 [Example 18.106] | > 40 µM | 10 to 40 µM | 
CC(C)[C@H](N)C(=O)N[C@H](CC1CCCC2CCCCC21)C(=O)NCc1ccc(C(=N)N)s1 (some centres unmarked) [Example 71.04] | 3 to 10 µM | 1 to 3 µM | 
CC(C)N[C@H](CCCCN1CCCCC1)C(=O)N[C@@H](Cc1ccc(F)c(F)c1)C(=O)NCc1ccc2c(N)nccc2c1 [Example 12.03] | > 40 µM | < 0.03 µM | 

SMILES | IC50 ([1]; category scale) | IC50 [2] | IC50 [1, 3]
N[C@H](CCCCO)C(=O)N1CC[C@H]1C(=O)NCc1ccc2[nH]cc(Cl)c2c1 [Example 10.06] | > 40 µM | 10 to 40 µM | 
C[C@@H]1CCC[C@H](C)N1CC(=O)N1CC(C(=O)NCc2ccc3c(N)nccc3c2)C1 [Example 32.12] | > 40 µM | 10 to 40 µM | 
C[C@H](NC(=O)[C@H](N)CCc1ccccc1)C(=O)NCc1ccc2[nH]cc(Cl)c2c1 [Example 9.04] | > 40 µM | 3 to 10 µM | 
C[C@@H]1CCC[C@H](C)N1CC(=O)N1CCC(C(=O)NCc2ccc3c(N)nccc3c2)C1 (some centres unmarked) [Example 32.10] | > 40 µM | 10 to 40 µM | 
CC(C)N[C@H](CCCCN1CCCCC1)C(=O)N[C@@H](Cc1ccc(-c2ccccc2)cc1)C(=O)NCc1ccc2c(N)nccc2c1 [Example 12.10] | > 40 µM | 3 to 10 µM | 
CC(NC(=O)[C@H](N)CCc1ccccc1)C(=O)NCc1ccc2ccnc(N)c2c1 (some centres unmarked) [Example 6.21] | > 40 µM | 10 to 40 µM | 
N[C@H](CCCCN1CCc2ccccc2C1)C(=O)N1CC[C@H]1C(=O)NCc1ccc2[nH]cc(Cl)c2c1 [Example 10.09] | > 40 µM | 1 to 3 µM | 
N=C(N)c1ccc(CNC(=O)[C@H](Cc2ccccc2)NC(=O)[C@@H](CC2CCCCC2)NCC(=O)O)cc1 [Example 71.05] | 0.3 to 1 µM | 3 to 10 µM | 
CC(C)N[C@H](CCCCN1CCCCC1)C(=O)N[C@@H](Cc1c[nH]c2ccccc12)C(=O)NCc1ccc2c(N)nccc2c1 [Example 12.05] | 3 to 10 µM | 0.03 to 0.1 µM | 
CN[C@H](CCc1ccccc1)C(=O)N1CC[C@H]1C(=O)NCc1ccc2c(N)nccc2c1 [Example 17.08] | > 40 µM | 0.28 to 1 µM | 
N[C@H](CCCCN1Cc2ccccc2C1)C(=O)N1CC[C@H]1C(=O)NCc1ccc2[nH]cc(Cl)c2c1 [Example 10.10] | > 40 µM | 1 to 3 µM | 
Nc1nccc2cc(CNC(=O)[C@@H]3C[C@@H](c4ccccc4)CN3CC3CCNCC3)ccc12 [Example 43.05] | > 40 µM | 10 to 40 µM | 
N[C@H](CCCCn1ccnc1)C(=O)N1CC[C@H]1C(=O)NCc1ccc2[nH]cc(Cl)c2c1 [Example 10.13] | > 40 µM | 3 to 10 µM | 
CC(C)N[C@H](CCCN1CCCCC1)C(=O)N1CC[C@H]1C(=O)NCc1ccc2c(N)nccc2c1 [Example 17.11] | > 40 µM | 0.28 to 1 µM | 
CC1CCCC(C)N1CC(=O)N[C@@H](Cc1ccc(F)c(F)c1)C(=O)NCc1ccc2c(N)nccc2c1 (some centres unmarked) [Example 3.01] | > 40 µM | 0.1 to 0.279 µM | 
O=C(NCc1ccc2[nH]cc(Cl)c2c1)[C@@H]1CCN1C(=O)CCCCCN1CCCCC1 [Example 10.16] | > 40 µM | 10 to 40 µM | 
C[C@H](NC(=O)[C@H](N)CCc1ccncc1)C(=O)NCc1ccc2c(N)nccc2c1 [Example 6.15] | > 40 µM | 3 to 10 µM | 
CC(C)N[C@H](COc1ccccc1)C(=O)N1CCC1C(=O)NCc1ccc2[nH]cc(Cl)c2c1 (some centres unmarked) [Example 10.17] | 10 to 40 µM | 10 to 40 µM | 
N=C(N)c1ccc(CNC(=O)[C@H](Cc2cccc3ccccc23)NC(=O)c2ccccn2)cc1 [Example 71.02] |  | 1 to 3 µM | > 10 µM
N=C(N)c1ccc(CNC(=O)[C@H](Cc2cccc3ccccc23)NC(=O)[C@H]2CCCN2)cc1 [Example 71.01] |  | 0.1 to 0.279 µM | > 10 µM
CC(C)N[C@H](CCCN1CCCCC1)C(=O)N[C@@H](Cc1ccc(F)c(F)c1)C(=O)NCc1ccc2c(N)nccc2c1 [Example 12.04] | 10 to 40 µM | 0.28 to 1 µM | 
Nc1nccc2cc(CNC(=O)C3(NC(=O)[C@H](N)CCc4ccccc4)CC3)ccc12 [Example 54.01] | > 40 µM | 0.28 to 1 µM | 
CC(C)N[C@H](CCCCN1CCCCC1)C(=O)N[C@@H](Cc1ccc(F)c(F)c1)C(=O)NCc1ccc2[nH]cc(Cl)c2c1 [Example 27.03] | 10 to 40 µM | < 0.03 µM | 
